# Data published in US20090053721A1, “VOLTAGE-GATED ION CHANNEL MUTANTS FOR USE IN IDENTIFYING ION CHANNEL MODULATING COMPOUNDS” (CARDIOME PHARMA CORP., priority 2007, published 2009).
# Structures can show the parent of a compound that is named as a salt.
# Legend:
# [1] = biological target: T1, Kv1.5 T480A mutant channel (Homo sapiens, UniProt P22460, T480A); test: Whole-cell patch-clamp block of mutant Kv1.5 current in HEK293 cells; type: cell-based
# T1 construct: subcloned as a fragment back into full-length Kv1.5; expressed in transfected cells; host or cells: HEK293, transient transfection
# Procedure: (§1) Stable lines of HEK293 cells expressing Kv1.5, or transient transfection of mutant Kv1.5 channels were used in all experiments. […] (Coralville, Iowa, USA), and mutants were generated using the Stratagene Quikchange kit (Stratagene, Calif., USA). […] This was added to the cells for overnight incubation after washing the media with 900 μl of MEM with 10% FBS. […] Media contained 10% bovine serum and 0.5 mg/ml geneticin for stable lines. On the day before recording, stably-expressing cells were washed with MEM, treated with trypsin/EGTA for one minute and plated on 25 mm^2 coverslips. All cell culture supplies were obtained from Invitrogen (Mississauga, ON, Canada). Control bath solution contained (in mM): 5 KCl, 135 NaCl, 2.8 sodium acetate, 1 MgCl2, 10 HEPES and 1 CaCl2, adjusted to pH 7.4 with NaOH. Patch pipettes contained (in mM): 130 KCl, 5 EGTA, 1 MgCl2, 10 HEPES, 4 Na2ATP, and 0.1 GTP, adjusted to pH 7.2 with KOH. All chemicals used to make solutions were obtained from Sigma-Aldrich (Mississauga, ON, Canada). […] (Vancouver, BC, Canada) and prepared as a stock solution (50 mM) in H2O. […] DMSO concentrations for either drug never exceeded 0.1% v/v in the final experimental solutions. Coverslips with adherent cells plated on the surface were placed in a superfusion chamber (volume 300 μl) containing the control bath solution at 22° C. Whole-cell current recording and analysis were carried out using an Axopatch 200B amplifier and pClamp10 software (Axon Instruments, CA, USA). Patch electrodes were pulled from thin-walled borosilicate glass (World Precision Instruments, FL, USA) on a horizontal micropipette puller (Sutter Instruments, CA, USA). […] Analogue capacity compensation and 80% series resistance compensation were used during whole cell measurements. Membrane potentials were not corrected for junction potentials that arise between the pipette and bath solution. […] Data were sampled at 10-20 kHz and filtered at 5 to 10 kHz. […] Data are represented as mean±SE unless otherwise specified. For significance of differences, * represents p<0.05, ** p<0.01; statistical analysis was conducted using Student's t-test (unpaired). Clampfit software (Axon Instruments, CA, USA) was used to analyze current traces. Data from each test pulse (currents in the presence of drug) were normalized to control test pulse currents obtained before drug exposure. […] IC50 is the concentration producing half-maximal inhibition; and n is the Hill coefficient.
# [2] = biological target: T2, Kv1.5 T479S mutant channel (Homo sapiens, UniProt P22460, T479S); test: as above; type: cell-based
# T2 construct: subcloned as a fragment back into full-length Kv1.5; expressed in transfected cells; host or cells: HEK293, transient transfection
# Procedure: as §1
# [3] = biological target: T3, Kv1.5 C500A mutant channel (Homo sapiens, UniProt P22460, C500A); test: as above; type: cell-based
# T3 construct: subcloned as a fragment back into full-length Kv1.5; expressed in transfected cells; host or cells: HEK293, transient transfection
# Procedure: as §1
# [4] = biological target: T4, Kv1.5 I508L mutant channel (Homo sapiens, UniProt P22460, I508L); test: as above; type: cell-based
# T4 construct: subcloned as a fragment back into full-length Kv1.5; expressed in transfected cells; host or cells: HEK293, transient transfection
# Procedure: as §1
# [5] = biological target: T5, Kv1.5 V505L mutant channel (Homo sapiens, UniProt P22460, V505L); test: as above; type: cell-based
# T5 construct: subcloned as a fragment back into full-length Kv1.5; expressed in transfected cells; host or cells: HEK293, transient transfection
# Procedure: as §1
# [6] = biological target: T6, Kv1.5 T480S mutant channel (Homo sapiens, UniProt P22460, T480S); test: as above; type: cell-based
# T6 construct: subcloned as a fragment back into full-length Kv1.5; expressed in transfected cells; host or cells: HEK293, transient transfection
# Procedure: as §1
# [7] = biological target: T7, Kv1.5 P532L mutant channel (Homo sapiens, UniProt P22460, P532L); test: as above; type: cell-based
# T7 construct: subcloned as a fragment back into full-length Kv1.5; expressed in transfected cells; host or cells: HEK293, transient transfection
# Procedure: as §1
# [8] = biological target: T8, Kv1.5 A501V mutant channel (Homo sapiens, UniProt P22460, A501V); test: as above; type: cell-based
# T8 construct: subcloned as a fragment back into full-length Kv1.5; expressed in transfected cells; host or cells: HEK293, transient transfection
# Procedure: as §1
# [9] = biological target: T9, Kv1.5 I508Y mutant channel (Homo sapiens, UniProt P22460, I508Y); test: as above; type: cell-based
# T9 construct: subcloned as a fragment back into full-length Kv1.5; expressed in transfected cells; host or cells: HEK293, transient transfection
# Procedure: as §1
# atrial fibrillation = details: intravenous; within 90 min of infusion; phase II and III trials; cited from earlier work
# IKs (KvLQT1) = IKs (KvLQT1) (Homo sapiens, UniProt P51787); test: Sensitivity of IKs channel to vernakalant (unpublished data)
# Sequence of IKs (KvLQT1) (P51787 whole entry): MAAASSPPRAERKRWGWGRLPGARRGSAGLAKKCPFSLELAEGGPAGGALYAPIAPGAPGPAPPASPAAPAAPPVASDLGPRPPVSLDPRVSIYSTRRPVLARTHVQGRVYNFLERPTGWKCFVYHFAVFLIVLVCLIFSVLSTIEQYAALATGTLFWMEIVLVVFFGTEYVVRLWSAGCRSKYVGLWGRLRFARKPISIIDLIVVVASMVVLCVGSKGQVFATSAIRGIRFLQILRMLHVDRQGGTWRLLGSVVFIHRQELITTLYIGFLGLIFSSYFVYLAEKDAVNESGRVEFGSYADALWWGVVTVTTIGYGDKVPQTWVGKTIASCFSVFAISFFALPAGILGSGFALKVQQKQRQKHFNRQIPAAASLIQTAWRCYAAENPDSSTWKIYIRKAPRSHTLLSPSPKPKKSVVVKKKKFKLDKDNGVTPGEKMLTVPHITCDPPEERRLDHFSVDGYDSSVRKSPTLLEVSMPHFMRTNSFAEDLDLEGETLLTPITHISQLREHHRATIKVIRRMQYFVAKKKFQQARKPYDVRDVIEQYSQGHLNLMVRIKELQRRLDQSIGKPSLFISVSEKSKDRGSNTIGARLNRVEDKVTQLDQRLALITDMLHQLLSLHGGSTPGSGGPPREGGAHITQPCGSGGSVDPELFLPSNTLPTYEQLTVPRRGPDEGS
# T8 sequence (P22460 whole entry A501V, the tested form may be a part): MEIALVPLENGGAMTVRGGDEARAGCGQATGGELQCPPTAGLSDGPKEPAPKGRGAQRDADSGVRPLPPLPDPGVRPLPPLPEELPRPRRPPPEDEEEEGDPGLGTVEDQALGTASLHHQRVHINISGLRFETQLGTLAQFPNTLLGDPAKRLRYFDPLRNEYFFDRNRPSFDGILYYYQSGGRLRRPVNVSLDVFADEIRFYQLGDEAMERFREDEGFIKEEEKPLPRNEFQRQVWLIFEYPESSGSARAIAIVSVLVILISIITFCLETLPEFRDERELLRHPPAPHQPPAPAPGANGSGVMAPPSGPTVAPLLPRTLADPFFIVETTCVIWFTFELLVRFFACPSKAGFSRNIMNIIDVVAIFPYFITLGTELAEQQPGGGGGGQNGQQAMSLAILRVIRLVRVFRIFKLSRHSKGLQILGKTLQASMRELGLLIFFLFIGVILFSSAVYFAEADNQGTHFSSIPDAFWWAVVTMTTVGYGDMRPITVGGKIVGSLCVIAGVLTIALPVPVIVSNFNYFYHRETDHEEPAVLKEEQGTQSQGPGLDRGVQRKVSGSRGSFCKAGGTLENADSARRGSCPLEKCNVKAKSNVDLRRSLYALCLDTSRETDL
# T9 sequence (P22460 whole entry I508Y, the tested form may be a part): as the sequence (P22460 whole entry A501V, the tested form may be a part) above, with V501A, I508Y counted along it
# T5 sequence (P22460 whole entry V505L, the tested form may be a part): as the sequence (P22460 whole entry A501V, the tested form may be a part) above, with V501A, V505L counted along it
# T7 sequence (P22460 whole entry P532L, the tested form may be a part): as the sequence (P22460 whole entry A501V, the tested form may be a part) above, with V501A, P532L counted along it
# T1 sequence (P22460 whole entry T480A, the tested form may be a part): as the sequence (P22460 whole entry A501V, the tested form may be a part) above, with T480A, V501A counted along it
# T6 sequence (P22460 whole entry T480S, the tested form may be a part): as the sequence (P22460 whole entry A501V, the tested form may be a part) above, with T480S, V501A counted along it
# T2 sequence (P22460 whole entry T479S, the tested form may be a part): as the sequence (P22460 whole entry A501V, the tested form may be a part) above, with T479S, V501A counted along it
# T4 sequence (P22460 whole entry I508L, the tested form may be a part): as the sequence (P22460 whole entry A501V, the tested form may be a part) above, with V501A, I508L counted along it
# T3 sequence (P22460 whole entry C500A, the tested form may be a part): as the sequence (P22460 whole entry A501V, the tested form may be a part) above, with C500A, V501A counted along it
compound,measurement,setting,value
"COc1ccc(CCO[C@@H]2CCCC[C@H]2N2CC[C@@H](O)C2)cc1OC [Vernakalant, 3-Pyrrolidinol, 1-[(1R,2R)-2-[2-(3,4-dimethoxyphenyl)ethoxy]cyclohexyl]-,hydrochloride, (3R)]",Hill coefficient,[1],0.88
same,Fractional Block ± SEM,[1]; 10 μM vernakalant,0.23 ± 0.04
same,Hill coefficient,[2],0.95
same,Fractional Block ± SEM,[2]; 10 μM vernakalant,0.23 ± 0.04
same,Hill coefficient,[3],0.95
same,Fractional Block ± SEM,[3]; 10 μM vernakalant,0.21 ± 0.04
same,Hill coefficient,[4],1.00
same,Fractional Block ± SEM,[4]; 10 μM vernakalant,0.38 ± 0.05
same,Hill coefficient,[5],0.77
same,Fractional Block ± SEM,[5]; 10 μM vernakalant,0.22 ± 0.07
same,Hill coefficient,[6],0.64
same,Fractional Block ± SEM,[6]; 10 μM vernakalant,0.25 ± 0.07
same,Hill coefficient,[7],0.96
same,Fractional Block ± SEM,[7]; 10 μM vernakalant,0.26 ± 0.03
same,Hill coefficient,[8],0.85
same,Fractional Block ± SEM,[8]; 10 μM vernakalant,0.69 ± 0.04
same,Hill coefficient,[9],1.46
same,Fractional Block ± SEM,[9]; 10 μM vernakalant,0.21 ± 0.03
same,overall rate of conversion of AF to sinus rhythm,atrial fibrillation,~52%
same,sensitivity of IKs channel to drug,IKs (KvLQT1),not sensitive
